In US8703792B2, “C-1 analogs of pancratistatin and 7-deoxypancratistatin and processes for their preparation” (Brock University, priority 2008, dated 2014):
In brackets after ≈: the same amount, converted by molar mass. Entries after “also recorded” stand apart in the source; their conditions may differ.

What was measured:
[1] = system: Human prostate carcinoma cells DU-145; assay: MTT assay, prostate DU-145; type: cell-based; details: 48 hrs, read-out: Inhibitory Activities: IC50, prostate DU-145
Experimental: (§1) Human non-small cell lung cancer line NCI-H460 (ATCC # HTB-177) and human pancreatic adenocarcinoma cancer cell line BxPC-3 (ATCC # CRL-1687) were cultured in RPMI-1640 medium supplemented with 10% fetal bovine serum (FBS) (Gibco, Carlsbad, Calif.), 100 mg/L penicillin G and 100 mg/L streptomycin and (Cellgro, Manassas, Va.). Human prostate carcinoma cells DU-145 (ATCC # HTB-81) were cultured in Dulbecco's modified Eagle Medium (Cellgro) supplemented with 10% FBS, 100 mg/L penicillin G and 100 mg/L streptomycin. Human mammary carcinoma cells MCF-7 (ATCC # HTB-22) were cultured using Dulbecco's modified Eagle Medium supplemented with 10% FBS, 100 mg/L penicillin G, 100 mg/L streptomycin, 1.0 mM Glutamax and 1.0 mM sodium pyruvate, (Gibco).
(§2) In addition, the BxPC-3, […], DU-145 and MCF-7 lines were assessed by seeding 4×10^3 cells per well into microplates. The cells were grown for 24 hrs before treatment at concentrations ranging from 0.01 to 10 μM and incubated for 48 hrs. MTT reagent (5 mg/mL, MP Biomedical, Solon, Ohio) was added to each well and incubated further for 2 hrs. The resulting formazan crystals were dissolved in DMSO and the OD was determined at a wavelength of 490 nm. The experiments were repeated at least twice for each compound per cell line. Cells treated with 0.1% DMSO were used as a control.

[2] = system: B-cell leukemia (Jurkat) cell line; assay: MTT assay, leukemia Jurkat; type: cell-based; details: Homo sapiens, read-out: Inhibitory Activities: IC50, leukemia Jurkat
Experimental: (§3) The Human neuroblastoma (SH-SY5Y) and B-cell leukemia (Jurkat) cell lines were purchased from ATCC (Manassas, Va.). Cells were maintained and grown at 37° C., 95% humidity and 5% CO2. Jurkat cells were grown with RPMI-1640 media (Sigma-Aldrich, Oakville, ON, Canada) supplemented with 10% fetal bovine serum (FBS) and 10 mg/ml Gentamycin (Gibco BRL, Mississauga, ON, Canada). SH-SY5Y cells were grown with Dulbecco's Modified Eagles Medium (DMEM) HAM F12 (Sigma-Aldrich), supplemented with 2 mM L-Glutamine, 10 mg/ml Gentamycin, and 10% FBS. Normal Human Fibroblasts (NHFs) obtained from Coriell Institute for Medical Research (New Jersey, USA) were cultured in Earle's Minimum Essential Medium (MEME) (Sigma Chemical Company, Mississauga, Ontario, Canada) completed with 15% fetal bovine serum, 2 mM L-Glutamine, 10 mg/ml Gentamycin, 1.5 g/l sodium bicarbonate, 1% vitamins, and essential (2%) and non-essential amino acids (1%) (Gibco BRL, VWR, Mississauga, ON, Canada).
(§4) To evaluate the cytotoxic effects of the C-1 derivatives of 7-deoxypancratistatin, mitochondrial dehydrogenase activities were measured. Jurkat and SH-SY5Y cells were grown and treated for 24, 48, and 72 hrs. Cells were treated with concentrations ranging from 0.25 to 10 μM of each derivative dissolved in DMSO Similarly, ncPBMCs and NHFs were treated to assess the effects of the C-1 derivatives on non-cancerous cells.

SH-SY5Y cells = assay: Apoptosis induction (Hoechst staining, Annexin-V binding) in SH-SY5Y cells; type: cell-based, human; details: for Apoptotic morphology: 72 hours treatment, Hoechst staining and Annexin-V binding; for EC50: Homo sapiens, 72 hrs exposure, Hoechst staining, read-out: effective dose at which 50% of cells were apoptotic (ED50)
Experimental: as §3
(§5) Nuclear morphology was visualized using a final concentration of 10 μM of Hoechst 33342 dye (Molecular Probes, Eugene, Oreg., USA). Phosphatidyl serine flipping, (an apoptotic biochemical marker) was visualized with Annexin-V-FITC binding assay as per manufacturer's protocol (Molecular Probes, Eugene Oreg., USA). […] Apoptotic cells were expressed as a percentage of the total number of cells counted. Standard error was calculated from at least 3 separate experiments.

[3] = system: Human non-small cell lung cancer line NCI-H460; assay: MTT assay, lung-NSC NCI-H460; type: cell-based; details: 48 hrs, read-out: Inhibitory Activities: IC50, lung-NSC NCl-H460
Experimental: as §1, §2

[4] = system: Human neuroblastoma (SH-SY5Y) cell line; assay: MTT assay, neuroblastoma SH-SY5Y; type: cell-based; details: read-out: Inhibitory Activities: IC50, neuroblastoma Shsy5y
Experimental: as §3, §4

[5] = system: Human mammary carcinoma cells MCF-7; assay: MTT assay, breast MCF-7; type: cell-based; details: MCF7, 48 hrs, read-out: Inhibitory Activities: IC50, breast MCF-7
Experimental: as §1, §2

[6] = system: human pancreatic adenocarcinoma cancer cell line BxPC-3; assay: MTT assay, pancreas BxPC-3; type: cell-based; details: 48 hrs, read-out: Inhibitory Activities: IC50, pancreas BxPC-3
Experimental: as §1, §2

Jurkat cells = assay: Apoptosis induction (Hoechst staining, Annexin-V binding) in Jurkat cells; type: cell-based, human; details: for Apoptotic morphology: 72 hours treatment, Hoechst staining and Annexin-V binding; for EC50: Homo sapiens, 72 hrs exposure, Hoechst staining, read-out: effective dose at which 50% of cells were apoptotic (ED50)
Experimental: as §3, §5

leukemia P388 = assay: Cancer cell line growth inhibition, leukemia P388; type: cell-based, murine; details: Mus musculus, read-out: Inhibitory Activities: IC50, leukemia P388
colon KM20L2 = assay: Cancer cell line growth inhibition, colon KM20L2; type: cell-based; details: Homo sapiens, KM-20L2; read-out: Inhibitory Activities: IC50, colon KM20L2
[7] = system: normal human fibroblasts (NHFs); assay: Apoptosis induction (Hoechst staining) in normal human fibroblasts; type: cell-based
Experimental: as §3
To evaluate the cytotoxic effects of the C-1 derivatives of 7-deoxypancratistatin, mitochondrial dehydrogenase activities were measured. […]
Nuclear morphology was visualized using a final concentration of 10 μM of Hoechst 33342 dye (Molecular Probes, Eugene, Oreg., USA). […] Apoptotic cells were expressed as a percentage of the total number of cells counted. Standard error was calculated from at least 3 separate experiments.

[8] = system: non-cancerous peripheral blood mononuclear cells (ncPBMC); assay: Apoptosis induction (Hoechst staining) in non-cancerous peripheral blood mononuclear cells; type: cell-based, human; details: peripheral blood mononuclear cells from healthy volunteers
Description: Peripheral blood was obtained from healthy non-smoking volunteers aged 25-50 years upon written and informed consent (University of Windsor REB #04-147). Whole blood samples were collected in BD Vacutainer™ Cell Preparation Tube and mononuclear cells were separated by density gradient centrifugation. The isolated cells were maintained in RPMI 1640 media supplemented and maintained as was the Jurkat culture.
as §4, §5

CNS SF-268 = assay: Cancer cell line growth inhibition, CNS SF-268; type: cell-based; details: Homo sapiens, read-out: Inhibitory Activities: IC50, CNS SF-268

| Compound | melting point [°C] | IC50 [1] [µg/mL] | IC50 [2] [µg/mL] | Apoptotic morphology (SH-SY5Y cells) | EC50 (SH-SY5Y cells) [nM] | IC50 [3] [µg/mL] | IC50 [4] [µg/mL] | IC50 [5] [µg/mL] | IC50 [6] [µg/mL] | Apoptotic morphology (Jurkat cells) | EC50 (Jurkat cells) [nM] | IC50 (leukemia P388) [µg/mL] | IC50 (colon KM20L2) [µg/mL] | induction of apoptosis in non-cancerous cells [7] | induction of apoptosis in non-cancerous cells [8] | IC50 (CNS SF-268) [µg/mL] |
| --- | --- | --- | --- | --- | --- | --- | --- | --- | --- | --- | --- | --- | --- | --- | --- | --- |
| COC(=O)[C@H]1[C@H](O)[C@@H](O)[C@@H](O)[C@@H]2NC(=O)c3cc4c(cc3[C@H]21)OCO4 | > 200 |  |  |  |  |  |  |  |  |  |  |  |  |  |  |  |
| O=C1N[C@H]2[C@H](O)[C@H](O)[C@@H](O)[C@H](CO)[C@@H]2c2cc3c(cc21)OCO3 [I(d), (1S,2S,3R,4S,4aR,11bR)-2,3,4-trihydroxy-1-(hydroxymethyl)-1,2,3,4,4a, 5-hexahydro-[1,3]dioxolo[4,5-j]phenanthridin-6(11bH)-one] | > 200 | 0.26 (≈ 0.804 µM) | 1.61 (≈ 5 µM) | Apoptotic morphology was observed | 10000 | 0.09 (≈ 0.278 µM) | 1.61 (≈ 5 µM) | 0.65 (≈ 2.01 µM) | 0.19 (≈ 0.588 µM) | Apoptotic morphology was observed | 1000 |  |  |  |  |  |
| O=C1N[C@H]2[C@H](O)[C@H](O)[C@@H](O)[C@H](O)[C@@H]2c2cc3c(cc21)OCO3 [Compound 4, 7-deoxypancratistatin] |  |  |  |  |  | 0.29 (≈ 0.938 µM) |  |  |  |  |  | 0.44 (≈ 1.42 µM) | 0.22 (≈ 0.711 µM) |  |  |  |
| CC(=O)OC[C@H]1[C@H](O)[C@@H](O)[C@@H](O)[C@@H]2NC(=O)c3cc4c(cc3[C@@H]12)OCO4 [I(c), ((1S,2S,3R,4S,4aR,11bR)-2,3,4-trihydroxy-6-oxo-1,2,3,4,4a,5,6,11b-octahydro-[1,3]dioxolo[4,5-j]phenanthridin-1-yl)methyl acetate] | > 200 | 0.37 | 0.183 | Apoptotic morphology was observed | 500 | 0.11 | 0.183 | 0.29 | 0.11 | Apoptotic morphology was observed | 500 |  |  | did not induce apoptosis; also recorded: does not induce apoptosis | did not induce apoptosis; also recorded: does not induce apoptosis |  |
| O=C1N[C@H]2[C@H](O)[C@H](O)[C@@H](O)[C@H](O)[C@@H]2c2cc3c(c(O)c21)OCO3 [Compound 1, pancratistatin] |  | 0.016 (≈ 0.0492 µM) | 0.163 (≈ 0.501 µM) |  |  | 0.048 (≈ 0.148 µM) | 0.163 (≈ 0.501 µM) | 0.032 (≈ 0.0984 µM) | 0.028 (≈ 0.0861 µM) |  |  | 0.039 (≈ 0.12 µM) | 0.062 (≈ 0.191 µM) |  |  | 0.017 (≈ 0.0523 µM) |
